Laboratory results: patent US9447120B2, “Crystalline forms of zinc trisodium pentetic acid” (Hameln Pharma Plus GmbH, priority 2013, dated 2016)

Experiments:
[1] = Determination of the hygroscopicity (weight increase in a stability chamber); format: physicochemical
Method: Here, the samples used were each subjected to the same pre-drying process (cf. Examples 3 and 4). The samples were exposed in each case for the time period stated in the Table at 25° C. and an air humidity of 65% relative air humidity.
The hygroscopicity of Zn-DTPA was checked by measuring the weight increase in a controlled environment. At air temperature (25±2°) C. and (60±5)% air humidity in a stability chamber (Thermo TEC), the weights of two samples (5.000 g) in each case were checked (Analytical balance, XS 205, Mettler Toledo). The weight was checked after 1, 2, 4, 6, 8, 24 and 48 hours.

[2] = lyophilized powder, over 24 h; cited from earlier work
[3] = Table 6, time 1 h, 25° C., 65% relative air humidity
[4] = Table 6, time 2 h, 25° C., 65% relative air humidity
[5] = Table 6, time 4 h, 25° C., 65% relative air humidity
[6] = Table 6, time 6 h, 25° C., 65% relative air humidity
[7] = Table 6, time 8 h, 25° C., 65% relative air humidity
[8] = Table 6, time 24 h, 25° C., 65% relative air humidity
[9] = Table 6, time 48 h, 25° C., 65% relative air humidity

| Compound | Mean mass increase [1, 3] [%] | Mean mass increase [1, 4] [%] | Mean mass increase [1, 5] [%] | Mean mass increase [1, 6] [%] | Mean mass increase [1, 7] [%] | Mean mass increase [1, 8] [%] | Mean mass increase [1, 9] [%] | other results |
| --- | --- | --- | --- | --- | --- | --- | --- | --- |
| O=C([O-])CN(CCN(CC(=O)[O-])CC(=O)[O-])CCN(CC(=O)[O-])CC(=O)[O-].[Na+].[Na+].[Na+].[Zn+2] [conventional Zn-DTPA, trisodium zinc diethylenetriaminepentaacetate] | – | – | – | – | – | – | – | behaviour due to hygroscopy ([1]; sufficiently long exposure to air humidity): deliquesces |
| O=C([O-])CN(CCN(CC(=O)[O-])CC(=O)[O-])CCN(CC(=O)[O-])CC(=O)[O-].[Na+].[Na+].[Na+].[Zn+2] [Form I, trisodium zinc diethylenetriaminepentaacetate] | 0.32 | 0.54 | 0.92 | 1.34 | 1.64 | 3.91 | 6.81 | – |
| O=C([O-])CN(CCN(CC(=O)[O-])CC(=O)[O-])CCN(CC(=O)[O-])CC(=O)[O-].[Na+].[Na+].[Na+].[Zn+2] [Form II, B, trisodium zinc diethylenetriaminepentaacetate] | 0.41 | 0.72 | 1.29 | 1.97 | 2.43 | 5.18 | 5.25 | – |
| O=C([O-])CN(CCN(CC(=O)[O-])CC(=O)[O-])CCN(CC(=O)[O-])CC(=O)[O-].[Na+].[Na+].[Na+].[Zn+2] [Amorph I, trisodium zinc diethylenetriaminepentaacetate] | 0.51 | 0.89 | 1.56 | 2.35 | 2.95 | 7.38 | 11.92 | Mean mass increase ([1]; Table 1, time 1 h, product obtained by prior-art route, listed as Batch 1): 0.51%; Mean mass increase ([1]; Table 1, time 2 h, product obtained by prior-art route, listed as Batch 1): 0.89%; Mean mass increase ([1]; Table 1, time 4 h, product obtained by prior-art route, listed as Batch 1): 1.56%; Mean mass increase ([1]; Table 1, time 6 h, product obtained by prior-art route, listed as Batch 1): 2.35%; Mean mass increase ([1]; Table 1, time 8 h, product obtained by prior-art route, listed as Batch 1): 2.95%; Mean mass increase ([1]; Table 1, time 24 h, product obtained by prior-art route, listed as Batch 1): 7.38%; Mean mass increase ([1]; Table 1, time 48 h, product obtained by prior-art route, listed as Batch 1): 11.92% |
| O=C([O-])CN(CCN(CC(=O)[O-])CC(=O)[O-])CCN(CC(=O)[O-])CC(=O)[O-].[Na+].[Na+].[Na+].[Zn+2] [Zn-DTPA, trisodium zinc diethylenetriaminepentaacetate] | – | – | – | – | – | – | – | water absorbed [2]: more than 10 % by weight |
| O=C([O-])CN(CCN(CC(=O)[O-])CC(=O)[O-])CCN(CC(=O)[O-])CC(=O)[O-].[Na+].[Na+].[Na+].[Zn+2] [Form II, A, trisodium zinc diethylenetriaminepentaacetate] | 0.34 | 0.57 | 1.00 | 1.49 | 1.84 | 4.42 | 5.07 | – |
| O=C([O-])CN(CCN(CC(=O)[O-])CC(=O)[O-])CCN(CC(=O)[O-])CC(=O)[O-].[Na+].[Na+].[Na+].[Zn+2] [Amorph Il, trisodium zinc diethylenetriaminepentaacetate] | 0.56 | 0.97 | 1.73 | 2.61 | 3.26 | 7.82 | 12.02 | Mean mass increase ([1]; Table 1, time 1 h, product obtained by prior-art route, listed as Batch 2): 0.56%; Mean mass increase ([1]; Table 1, time 2 h, product obtained by prior-art route, listed as Batch 2): 0.97%; Mean mass increase ([1]; Table 1, time 4 h, product obtained by prior-art route, listed as Batch 2): 1.73%; Mean mass increase ([1]; Table 1, time 6 h, product obtained by prior-art route, listed as Batch 2): 2.61%; Mean mass increase ([1]; Table 1, time 8 h, product obtained by prior-art route, listed as Batch 2): 3.26%; Mean mass increase ([1]; Table 1, time 24 h, product obtained by prior-art route, listed as Batch 2): 7.82%; Mean mass increase ([1]; Table 1, time 48 h, product obtained by prior-art route, listed as Batch 2): 12.02% |
